The record followed here is US4826994A, “Production of substituted 1,3,4,9-tetrahydropyrano(3,4-B)indole-1-acetic acids” (American Home Products Corporation, priority 1988, dated 1989).

A short description of assay [1]: Preventative Adjuvant Edema (acute anti-inflammatory effect in rats). The format is in vivo, Male Sprague Dawley rats. Details: inhibition in vivo: dose or concentration left out as unconfirmed. The note with it: for inhibition in vivo / inhibition in vivo at 25 mg/kg / ED50: Rattus norvegicus, po, 72 h; for inhibition in vivo / inhibition in vivo at 25 mg/kg / Preventative Adjuvant Edema, percent inhibition: p.o.; for inhibition in vivo / inhibition in vivo at 25 mg/kg: read-out: Preventative Adjuvant Edema, percent inhibition; for inhibition in vivo at 25 mg/kg / Preventative Adjuvant Edema, percent inhibition: 25 mg/kg; for ED50: value in parentheses. As for the experimental part: This test is a primary screen for anti-inflammatory drugs.
Male Sprague Dawley rats (180-200 g) are used. The animals have free access to water but food is withdrawn 18 hours before testing.
Drug Preparations and Administration:
Freund's complete adjuvant is prepared by suspending 5 mg of killed and dried Mycobacterium butyricum (Difco) in 1 mL mineral oil. The test compounds are dissolved, of suspended in 0.5% Tween 80 in distilled water according to their solubility. For primary screening all drugs are administered by gastric lavage at the arbitrary dosage of 25 mg/kg, p.o. in a volume of 0.5 mL/100 g body weight to groups of 10 animals.
The method is essentially that described by Wax et al, J. Pharmacol. Exp. Ther., 192, 166-171 (1975). Groups of rats are injected intradermally in the left hind paw with 0.1 mL of Freund's complete adjuvant. The test compound or vehicle is administered immediately before the adjuvant, 24 hours and 48 hours after the adjuvant (days 0, 1 and 2). The injected hind paw volume is measured before the injection of adjuvant and 24 hrs. after the last drug administration (day 3) by means of a plethysmometer (Buxco Electronics Inc.). The difference between the hind paw volume on day 0 and day 3 represents the edema volume. Etodolac (25 mg/kg, p.o.) is included as a positive control.
The mean edema volume (expressed as mL±SEM) is calculated for each group and the percentage protection conferred by the drug is calculated: [formula] where c is the mean edema volume for the vehicle-treated (0.5% Tween 80 in distilled water) controls and t is the mean edema volume for the drug treated group.

Assay [2] is described as follows: Drug Effects on Phenylbenzoquinone-induced Writhing in Mice. The format is in vivo, Male Swiss albino mice. The following applies: Mus musculus, po, Tested at 10 mg/kg, p.o., read-out: Phenylquinone Writhing in Mice, percent inhibition. (Writhing tests count abdominal constrictions after an irritant is injected.)
Assay in assay [3]: as above
The note with it: Mus musculus, po; for ED50: value in parentheses, read-out: Phenylquinone Writhing in Mice, ED50. The assay is classed as in vivo, Male Swiss albino mice. As to the method:
A further test used to determine the utility of the compounds of the present invention is designated: Drug Effects on Phenylbenzoquinone-induced Writhing in Mice
The objective of this test is to determine the ability of test drugs to inhibit the nociceptive (pain) response of mice injected with a chemical irritant. This test is a primary screen for both peripheral and centrally acting analgesic drugs.
Male Swiss albino mice (15-25 g). The animals are fasted for 18 hours prior to use but have free access to water.
(§1) Drug Preparation and Administration:
Drugs are dissolved or suspended according to their solubility in 0.5% Tween 80 in distilled water. They are administered by gastric gavage in a volume of 5 mL/kg. For primary screening all drugs are administered at the arbitrary dosage of 25 mg/kg, p.o. to a group of 10 mice.
A modification of the method of Siegmund et al, Proc. Soc. Exp. Biol. Med., 95, 729-731 (1957) is used. Groups of 5 mice are dosed with the test compound or vehicle control. Sixty minutes later the animals are injected i.p. with 0.3 mL/20 g body weight of a 0.02% solution of phenylbenzoquinone (PBQ; 2-phenyl-1,4-benzoquinone) and placed in individual observation boxes. The number of writhing or abdominal squirming movements made by each mouse during the following 15 min. period is counted. The experiment is repeated with another group of 5 mice and the mean number of writhes per mouse for a group of 10 mice is calculated.
Drug treated and vehicle-treated control groups are compared and the percentage protection conferred by the drug is calculated: [formula] where c=mean number of writhes in the control group where t=mean number of writhes in the test drug group

Assay [4] in a line: Randall Selitto Test in the Rat (pain threshold in inflamed paw). The format is in vivo, Male Sprague Dawley rats. The note with it: rats; for ED50: Rattus norvegicus, po, 1 hour after dosing, value in parentheses, read-out: Randall Selitto Test in the Rat, ED50 (dose which causes analgesia in 50% of the animals).
Excerpt: An additional test used to determine the utility of the compounds of the present invention is designated: Randall Selitto Test in the Rat
The objective of this test is to assess the potency of peripheral and central acting drugs in inhibiting the reaction of rats to painful stimulation applied to an inflamed paw.
Male Sprague Dawley rats (180-200 g) are used. The animals are fasted overnight prior to drug administration.
as §1
Freund's Complete Adjuvant (FCA) is prepared by suspending 5 mg killed and dried mycobacterium butyricum (Difco) in 1 mL mineral oil. The test compounds are dissolved or suspended in 0.5% Tween 80 in distilled water according to their solubility. They are administered by gastric gavage in a volume of 0.5 mL/100 g body weight to groups of 10 animals.
Ten rats are used per group. The method is essentially that described by Randall and Selitto, Arch. Int. Pharmacodyn. 111, 409 (1957) and the apparatus which is used to apply pressure to the paw (Analgesi-meter for the rat paw, Ugo Basile, Comeria, Italy) is a modification of that described by Gilfoil et al, J. Pharmacol. 142, 1 (1963). The instrument is basically a device which exerts a force that increases at a constant rate. The force is continuously monitored by a pointer moving along a linear scale and is measured in grams. The inflammatory reaction is induced in the left hind paw of rats of injecting 0.1 mL of Freund's adjuvant intradermally. The test compound or vehicle is administered 24 hours after the adjuvant. The pain threshold (vocalization) is determined 1 hour later in the inflamed paw of the treated and control groups.
Presentation of Results and Criteria for Activity:
Each animal which has a reading 1.5 times greater than the mean reading of the control-group will be considered as responsive (having an analgesic effect) to treatment. The number of animals showing an analgesic effect is then determined in each group.
The ED50 (dose which causes analgesia in 50% of the animals) using at least 3 doses is then determined, by the method described in Litchfield and Wilcoxon, J. Pharmacol. Exp. Ther., 96, 99-113 (1949).

In the case of `CCC1(CC(=O)O)OCC(Cc2ccc(F)cc2F)c2c1[nH]c1ccccc21` (single isomer, unassigned) [Example 45], in assay [1], the inhibition in vivo turned out to be 45%. The inhibition in vivo at 10 mg/kg in assay [2] was found to be 29%.

In the case of `CCC1(CC(=O)O)OCC(Cc2cccc(C(F)(F)F)c2)c2c1[nH]c1ccccc21` (single isomer, unassigned) [Example 44], in assay [1], the inhibition in vivo turned out to be 25%. Besides, the inhibition in vivo at 10 mg/kg in assay [2] was 22%.

As for `CCC1(CC(=O)O)OCC(Cc2ccccc2)c2c1[nH]c1c(Cl)c(Cl)ccc21` (single isomer, unassigned) [Example 18, 7,8-dichloro-1-ethyl-1,3,4,9-tetrahydro-4-(phenylmethyl)-pyrano[3,4-b]indole-1-acetic acid], the ED50 (usually the dose that gives a 50% effect, or the effect in half of the subjects) in assay [3] came out at 3.2 mg/kg; in assay [4], 0.8 mg/kg. For the same compound, the inhibition in vivo at 25 mg/kg in assay [1] amounted to 15%.

With `CCC1(CC(=O)O)OCC(Cc2ccccc2)c2c1[nH]c1c(C)cccc21` (single isomer, unassigned) [Example 22, 1-ethyl-1,3,4,9-tetrahydro-8-methyl-4-(phenylmethyl)-pyrano[3,4-b]indole-1-acetic acid], the results for the ED50 in assay [3] and in assay [4] were 4.7 mg/kg and 0.25 mg/kg, respectively. For the same compound, the “Preventative Adjuvant Edema, percent inhibition” value in assay [1] came to 47%.

Consider `CCC1(CC(=O)O)OCC(Cc2ccc(Cl)cc2)c2c1[nH]c1ccccc21` (single isomer, unassigned) [Example 42], for which the inhibition in vivo in assay [1] is 18%. Besides, the inhibition in vivo at 10 mg/kg in assay [2] came out at 24%.

Consider `CCC1(CC(=O)O)OCC(Cc2ccccc2)c2c1[nH]c1c(C)c(Cl)ccc21` (single isomer, unassigned) [Example 19, 7-chloro-1-ethyl-1,3,4,9-tetrahydro-8-methyl-4-(phenylmethyl)-pyrano[3,4-b]indole-1-acetic acid], for which the results for the ED50 in assay [3] and in assay [4] were 3.3 mg/kg and 1.6 mg/kg, respectively. The inhibition in vivo at 25 mg/kg in assay [1] came out at 52%.

`CCC1(CC(=O)O)OCC(Cc2ccc(F)cc2)c2c1[nH]c1ccccc21` (single isomer, unassigned) [Example 43]: in assay [1], the inhibition in vivo came out at 25%. The inhibition in vivo at 10 mg/kg in assay [2] is 47%.

Consider `CCc1cccc2c3c([nH]c12)C(CC)(CC(=O)O)OCC3Cc1ccccc1` (single isomer, unassigned) [Example 4, 1,8-Diethyl-1,3,4,9-tetrahydro-4-(phenylmethyl)-pyrano[3,4-b]indole-1-acetic Acid], for which the inhibition in vivo at 25 mg/kg in assay [3] (25 mg/kg, p.o., read-out: Phenylquinone Writhing in Mice, percent inhibition) stood at 86%. Also, the “Preventative Adjuvant Edema, percent inhibition” value in assay [1] came out at 15%. The ED50 in assay [4] turned out to be 0.5 mg/kg.

Consider `C=CCC1COC(CC)(CC(=O)O)c2[nH]c3c(C)c(Cl)ccc3c21` (single isomer, unassigned) [Example 16, 7-chloro-1-ethyl-1,3,4,9-tetrahydro-8-methyl-4-(2-propenyl)-pyrano[3,4-b]indole-1-acetic acid], for which the ED50 in assay [3] came to 5.5 mg/kg; in assay [1], 3 mg/kg; in assay [4] it was 0.012 mg/kg.

Turning to `CCC1(CC(=O)O)OCC(Cc2ccccc2)c2c1[nH]c1ccccc21` (single isomer, unassigned; isomer a) [Example 1, 1-Ethyl-1,3,4,9-tetrahydro-4-(phenylmethyl)-pyrano[3,4-b]indole-1-acetic Acid (Isomer A)], the results for the ED50 in assay [3] and in assay [4] were 1.9 mg/kg and 0.003 mg/kg, respectively. Besides, the inhibition in vivo at 25 mg/kg in assay [1] was determined as 37%.

With `C=CCC1COC(CC)(CC(=O)O)c2[nH]c3c(CCC)cccc3c21` (single isomer, unassigned) [Example 12, 1-ethyl-1,3,4,9-tetrahydro-4-(2-propenyl)-8-propyl-pyrano[3,4-b]indole-1-acetic acid], the ED50 was determined as 9.5 mg/kg in assay [3] and 1 mg/kg in assay [4]. In assay [1], the inhibition in vivo came out at 32%.

On to `C=CCC1COC(CC)(CC(=O)O)c2[nH]c3c(CC)c(F)ccc3c21` (single isomer, unassigned) [Example 10], for which the figures for the ED50 in assay [3] and in assay [1] were 7 mg/kg and 7.8 mg/kg, respectively. In assay [4] (Tested at 5 mg/kg, p.o.), the “Randall Selitto Test in the Rat, percent inhibition” value came out at 60%.
